Measured values: article PMC6009911, “Inhibition of human cytochromes P450 2A6 and 2A13 by flavonoids, acetylenic thiophenes and sesquiterpene lactones from Pluchea indica and Vernonia cinerea” (Journal of Enzyme Inhibition and Medicinal Chemistry, 2017)
Like-named read-outs stand apart in the source and are kept apart here.

Legend:
Type in all cases: biochemical
CYP2A13 [1] = molecular target: T1, CYP2A13 (Homo sapiens, UniProt Q16696); assay: Inhibition of CYP2A13-mediated coumarin 7-hydroxylation, enzymatic reconstitution assay
T1 construct: made in house
T1 sequence (Q16696 1-494): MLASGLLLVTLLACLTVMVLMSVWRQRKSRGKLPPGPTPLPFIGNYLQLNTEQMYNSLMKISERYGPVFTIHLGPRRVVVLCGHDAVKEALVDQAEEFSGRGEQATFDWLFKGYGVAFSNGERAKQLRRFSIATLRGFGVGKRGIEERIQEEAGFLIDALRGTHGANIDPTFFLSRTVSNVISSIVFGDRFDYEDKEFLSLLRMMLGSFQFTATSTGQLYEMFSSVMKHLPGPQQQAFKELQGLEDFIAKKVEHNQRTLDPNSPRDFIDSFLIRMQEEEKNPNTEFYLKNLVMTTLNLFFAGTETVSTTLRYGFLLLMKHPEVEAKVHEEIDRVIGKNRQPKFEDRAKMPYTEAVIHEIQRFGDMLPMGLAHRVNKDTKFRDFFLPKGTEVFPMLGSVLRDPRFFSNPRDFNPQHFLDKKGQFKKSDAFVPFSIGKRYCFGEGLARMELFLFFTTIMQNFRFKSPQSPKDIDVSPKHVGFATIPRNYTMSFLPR
Procedure, shortened: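 Purified recombinant CYP2A6 or CYP2A13 reconstituted with rat CYPOR; coumarin 7-hydroxylation read by 7-hydroxycoumarin fluorescence (ex 355/em 460 nm), inhibition as % of vehicle control with IC50 fitted.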

CYP2A13 [2] = molecular target: T1, CYP2A13; assay: Mechanism-based (time- and NADPH-dependent) inactivation of CYP2A13
Procedure, shortened: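 Inhibitor preincubated with enzyme and NADPH for 0, 10, 20 and 30 min before the reaction. KI and Kinact derived from double reciprocal plots of kobs versus inhibitor concentration by linear regression; methoxsalen served as reference inactivator.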

CYP2A13 [3] = molecular target: T1, CYP2A13; assay: Effects of trapping agents and dialysis on inactivation of CYP2A13; details: CYP2A13 inhibition reaction mixture, probe coumarin, compound 5 µM
Procedure, shortened: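 Recombinant enzyme preincubated with inhibitor and NADPH for 0, 10, 20 and 30 min; KI and kinact taken from double-reciprocal plots of kobs versus inhibitor concentration by linear regression. Reversibility probed by dialysis and by adding trapping agents (GSH, semicarbazide, catalase or potassium ferricyanide). Methoxsalen served as mechanism-based control.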

CYP2A6 [4] = molecular target: T2, CYP2A6 (Homo sapiens, UniProt P11509); assay: Inhibition of CYP2A6-mediated coumarin 7-hydroxylation, enzymatic reconstitution assay; design: made in house
T2 sequence (P11509 1-494): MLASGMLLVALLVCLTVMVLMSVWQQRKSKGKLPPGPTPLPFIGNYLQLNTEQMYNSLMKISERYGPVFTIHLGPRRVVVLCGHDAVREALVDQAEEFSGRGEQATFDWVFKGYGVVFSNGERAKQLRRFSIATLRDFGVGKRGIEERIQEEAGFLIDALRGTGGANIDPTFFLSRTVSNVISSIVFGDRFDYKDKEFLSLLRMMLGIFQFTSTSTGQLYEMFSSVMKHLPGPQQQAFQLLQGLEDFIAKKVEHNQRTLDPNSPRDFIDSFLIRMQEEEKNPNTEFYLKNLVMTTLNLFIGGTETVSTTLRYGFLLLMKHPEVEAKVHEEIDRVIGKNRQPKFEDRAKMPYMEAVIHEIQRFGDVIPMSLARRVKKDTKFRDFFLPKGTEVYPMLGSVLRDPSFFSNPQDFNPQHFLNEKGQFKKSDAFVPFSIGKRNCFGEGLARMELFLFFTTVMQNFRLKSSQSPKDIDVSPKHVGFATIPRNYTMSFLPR
Experimental: Inhibitory effect of plant extracts, fractions, subfractions and constituents was determined by inhibition assay on CYP2A6- and CYP2A13-mediated coumarin 7-hydroxylation. The recombinant human CYP2A6, CYP2A13 and rat NADPH-dependent cytochrome P450 oxidoreductase (CYPOR) proteins were expressed, purified, according to the methods previously described. […] Rate of 7-hydroxycoumarin product formation was measured on spectrofluorometer (Shimadzu, Kyoto, Japan) at λex = 355 nm, λem = 460 nm. Inhibition effects were determined by incubation with extracts, fractions or purified compounds with coumarin substrate in the reaction mixture and calculated as per cent relative inhibition compared with vehicle control reaction[20] and IC50 values were calculated using GraphPad Prism 5 (GraphPad Software Inc., La Jolla, CA).
(§1) MBI requires NADPH and time to generate reactive intermediate as inhibitor and ultimately inactivates the enzyme. MBI was evaluated by pre-incubation with each test inhibitor in the reaction at different time periods (0, 10, 20 and 30 min) in the presence of NADPH for time-dependent assay, as described. The apparent inactivation constants, KI and Kinact, were obtained from double reciprocal plots of kobs versus inhibitor concentrations by linear regression analysis on GraphPad Prism 5. Methoxsalen was used as a control mechanism-based inhibitor for time- and NADPH-dependent inhibition assays.

CYP2A6 [5] = molecular target: T2, CYP2A6; assay: Mechanism-based (time- and NADPH-dependent) inactivation of CYP2A6; design: made in house
Experimental: as §1

CYP2A6 [6] = molecular target: T2, CYP2A6; assay: Effects of trapping agents and dialysis on inactivation of CYP2A6; design: made in house; details: CYP2A6 inhibition reaction mixture, probe coumarin, compound 5 µM
Experimental: as §1
To explore whether inactivation of CYP2As by thiophenes 9–11 and of CYP2A13 by hirsutinolides 5-8 could be reversed, the removal of reversible inhibitory compounds by dialysis and addition of trapping agents (GSH, semicarbazide, catalase or potassium ferricyanide) in the inhibition reaction mixture were performed. […] Similarly, mechanism-based inactivation of both CYP2A6 and CYP2A13 by thiophenes 9–11 could not be reversed (Table 3).

CYP2A6 [7] = molecular target: T2, CYP2A6; assay: Inhibition of CYP2A6-mediated nicotine metabolism; design: made in house; details: compound at IC50 value; nicotine 50 μM; 30 min; Supplemental Figure S2
Experimental: Supplementary Figure S2. Inhibition effects of thiophene 11 on CYP2A6-mediated […]
mediated nicotine metabolism (B). Nicotine metabolism in the presence and absence of inhibitory test compounds, at IC50 value, was performed by incubation of the reaction mixture with nicotine substrate (a final concentration of 50 μM) prior to initiation of each reaction with 50 μM NADPH at room temperature. Each reaction was terminated by addition of ice-cold acetronitrile at 30 min incubation and 50 pmol 7-hydroxycoumarin as internal standard was added. The reaction was centrifuged (12,000 rpm, 10 min, 4 °C) and 20 μl of each sample was analyzed on symmetry RP-C18 column (3.9×150 mm). Gradient condition was isocratic of 12% ACN: 2-propanol (7:3) in 10 mM potassium phosphate buffer (pH 7.4) at flow rate of 1 ml/min. The nicotine peak area in each reaction was compared with that of time zero. The enzyme activity was determined as percent substrate consumption over 30 min. The reactions were […]
(1 picture or pasted object on this page, not shown here)

[8] = time- and concentration-dependent inactivation
[9] = read-out: Per cent remaining activity, 70 μM K3Fe(CN)6
[10] = read-out: Per cent remaining activity, 2 mM GSH
[11] = read-out: Per cent remaining activity, 5 mM semicarbazide
[12] = read-out: Per cent remaining activity, 2000 U catalase
[13] = read-out: Per cent remaining activity, Dialysis (+) NADPH
[14] = read-out: Per cent remaining activity, Dialysis (−) NADPH
[15] = read-out: Per cent remaining activity, Pre-incubation

CYP2A13 Mode of inhibition (CYP2A13 [1]): Mixed type
IC50 (CYP2A13 [1]; 10-min pre-incubation in the presence of NADPH, read-out: IC50 CYP2A13 Pre-incubation): 1470 ± 120 nM
IC50 (CYP2A13 [1]; coincubation, coumarin 2 µM, read-out: IC50 CYP2A13 Coincubation): 2400 ± 330 nM
Ki (CYP2A13 [1]; coumarin 0–40 µM): 1080 ± 50 nM
kinact (CYP2A13 [2]; pre-incubation 0-30 min with NADPH): 0.000833 s⁻¹
KI (inactivation) (CYP2A13 [2]; pre-incubation 0-30 min with NADPH, read-out: CYP2A13 KI (inactivation constant)): 670 ± 80 nM
KI, CYP2A13 (in Figure 2) (CYP2A13 [2]; [8]): 0.67 ± 0.08
activity at 5 µM (CYP2A13 [3]; [9]): 18.87 ± 0.18%
activity at 5 µM (CYP2A13 [3]; [10]): 23.5 ± 1.72%
activity at 5 µM (CYP2A13 [3]; [11]): 19.6 ± 2.73%
activity at 5 µM (CYP2A13 [3]; [12]): 19.5 ± 2.95%
activity at 5 µM (CYP2A13 [3]; [13]): 19.6 ± 4.21%
activity at 5 µM (CYP2A13 [3]; [14]): 96.84 ± 0.73%
activity at 5 µM (CYP2A13 [3]; [15]): 20.2 ± 2.76%
CYP2A6 Mode of inhibition (CYP2A6 [4]): Mixed type
IC50 (CYP2A6 [4]; 10-min pre-incubation in the presence of NADPH, read-out: IC50 CYP2A6 Pre-incubation): 180 ± 10 nM
IC50 (CYP2A6 [4]; coincubation, coumarin 2 µM, read-out: IC50 CYP2A6 Coincubation): 3900 ± 200 nM
Ki (CYP2A6 [4]; coumarin 0–40 µM): 1800 ± 180 nM
kinact (CYP2A6 [5]; human, recombinant human CYP2A6, probe coumarin, pre-incubation 0-30 min with NADPH): 0.00167 s⁻¹
KI (inactivation) (CYP2A6 [5]; human, recombinant human CYP2A6, probe coumarin, pre-incubation 0-30 min with NADPH, read-out: CYP2A6 KI (inactivation constant)): 110 ± 20 nM
KI, CYP2A6 (in Figure 2) (CYP2A6 [5]; [8]): 0.11 ± 0.02
activity at 5 µM (CYP2A6 [6]; [9]): 11.2 ± 2.96%
activity at 5 µM (CYP2A6 [6]; [10]): 8.42 ± 0.9%
activity at 5 µM (CYP2A6 [6]; [11]): 12.9 ± 3.47%
activity at 5 µM (CYP2A6 [6]; [12]): 14.4 ± 1.41%
activity at 5 µM (CYP2A6 [6]; [13]): 10.1 ± 1.84%
activity at 5 µM (CYP2A6 [6]; [14]): 82.4 ± 2.49%
activity at 5 µM (CYP2A6 [6]; [15]): 12.5 ± 1.93%
inhibition of CYP2A6-mediated nicotine metabolism (CYP2A6 [7]): showed inhibition
Compound: CC#Cc1ccc(C#CC#CC(O)CO)s1 (centres unmarked) [Thiophene 11, 2-(prop-1-inyl)-5–(5,6-dihydroxyhexa-1,3-diinyl) thiophene]
